Experimental data from ChEMBL document CHEMBL4725475, “Discovery of Potent and Selective 7-Azaindole Isoindolinone-Based PI3Kγ Inhibitors” (ACS Med Chem Lett, 2020).

Assays:
[1] = target: T1, Phosphatidylinositol 4,5-bisphosphate 3-kinase catalytic subunit gamma isoform (Homo sapiens, UniProt P48736); assay: Inhibition of PI3K p120gamma (unknown origin) using phosphatidylinositol 4,5-bisphosphate as substrate in presence of ATP incubated for 60 mins by ADP-Glo assay
Homo sapiens [2] = species on record: Homo sapiens; assay: Selectivity index, ratio of inhibition for PI3Kalpha (unknown origin) to inhibition for PI3K p120 gamma (unknown origin) using phosphatidylinositol 4,5-bisphosphate as substrate in presence of ATP incubated for 60 mins by ADP-Glo assay
Homo sapiens [3] = species on record: Homo sapiens; assay: Selectivity index, ratio of inhibition for PI3Kdelta (unknown origin) to inhibition for PI3K p120 gamma (unknown origin) using phosphatidylinositol 4,5-bisphosphate as substrate in presence of ATP incubated for 60 mins by ADP-Glo assay
[4] = target: T1, Phosphatidylinositol 4,5-bisphosphate 3-kinase catalytic subunit gamma isoform; assay: Inhibition of PI3Kgamma in human THP-1 cells assessed as reduction in Akt phosphorylation at S473 residue incubated for 60 mins measured after 120 mins by alphalisa assay; format: cell-based

T1 sequence (P48736 whole entry, canonical isoform): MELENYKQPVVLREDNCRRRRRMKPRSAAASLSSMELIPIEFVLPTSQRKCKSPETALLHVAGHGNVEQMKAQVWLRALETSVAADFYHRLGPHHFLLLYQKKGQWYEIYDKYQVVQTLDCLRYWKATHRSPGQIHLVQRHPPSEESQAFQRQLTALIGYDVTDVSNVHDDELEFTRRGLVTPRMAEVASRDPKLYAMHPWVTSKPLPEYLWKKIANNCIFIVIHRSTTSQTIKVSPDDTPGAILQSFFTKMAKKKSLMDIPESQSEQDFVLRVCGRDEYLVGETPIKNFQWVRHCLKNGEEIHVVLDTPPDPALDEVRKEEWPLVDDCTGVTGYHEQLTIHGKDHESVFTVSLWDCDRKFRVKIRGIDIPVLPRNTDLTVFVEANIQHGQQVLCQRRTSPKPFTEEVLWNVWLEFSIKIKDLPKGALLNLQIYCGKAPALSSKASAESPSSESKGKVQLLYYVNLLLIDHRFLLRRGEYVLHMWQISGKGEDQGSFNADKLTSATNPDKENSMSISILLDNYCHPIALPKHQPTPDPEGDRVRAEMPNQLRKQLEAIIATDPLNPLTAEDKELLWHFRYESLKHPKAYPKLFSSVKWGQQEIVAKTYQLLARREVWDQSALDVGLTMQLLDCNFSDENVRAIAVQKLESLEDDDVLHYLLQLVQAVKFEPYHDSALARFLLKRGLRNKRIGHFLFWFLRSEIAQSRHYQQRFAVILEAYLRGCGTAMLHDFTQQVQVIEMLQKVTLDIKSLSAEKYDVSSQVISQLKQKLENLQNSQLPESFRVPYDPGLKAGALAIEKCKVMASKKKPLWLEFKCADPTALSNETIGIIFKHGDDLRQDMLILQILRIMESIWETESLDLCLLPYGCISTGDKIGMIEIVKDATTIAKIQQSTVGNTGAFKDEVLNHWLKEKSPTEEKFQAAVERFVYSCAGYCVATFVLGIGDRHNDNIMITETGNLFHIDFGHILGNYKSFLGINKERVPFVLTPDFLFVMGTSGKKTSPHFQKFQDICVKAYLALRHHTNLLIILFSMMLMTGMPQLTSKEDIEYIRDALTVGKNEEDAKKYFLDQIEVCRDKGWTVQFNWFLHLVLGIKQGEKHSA

Row | Compound | IC50 [1] [nM] | Selectivity ratio (Homo sapiens [2]) | Selectivity ratio (Homo sapiens [3]) | IC50 [4] [nM]
1 | Cc1cc(-c2cnc3[nH]cc(-c4ccncc4)c3c2)cc2c1C(=O)N(CC(F)(F)F)C2 | 25.3 | 42 | 62 | 1600
2 | Cc1cc(-c2cnc3[nH]cc(-c4ccncc4)c3c2)cc2c1C(=O)N(C(C1CC1)C1CC1)C2 | 6.8 | 253 | 901 | 800
3 | Cc1cc(-c2cnc3[nH]cc(C(=O)Nc4ccncc4)c3c2)cc2c1C(=O)N([C@@H](C)C1CC1)C2 | 12 | > 856 | > 856 | 1300
4 | Cc1cc(-c2cnc3[nH]cc(-c4ccncc4)c3c2)cc2c1C(=O)N([C@@H](C)c1ccc(F)cc1)C2 | 40 | 142 | > 190 | 2100
5 | Cc1cc(-c2cnc3[nH]cc(-c4ccncc4)c3c2)cc2c1C(=O)N(C(C)(C)C1CC1)C2 | 28 | 74 | 100 | 1100
6 | Cc1cc(-c2cnc3[nH]cc(C(=O)NC4CCOCC4)c3c2)cc2c1C(=O)N([C@@H](C)C1CC1)C2 | 4.5 | > 2240 | 1030 | 320
7 | Cc1cc(-c2cnc3[nH]cc(-c4ccc(S(N)(=O)=O)cc4)c3c2)cc2c1C(=O)N([C@@H](C)C1CC1)C2 | 5 | 1060 | 463 | 400
8 | CC[C@@H](C1CC1)N1Cc2cc(-c3cnc4[nH]cc(-c5ccncc5)c4c3)cc(C)c2C1=O | 6 | 255 | > 414 | 800
9 | Cc1cc(-c2cnc3[nH]c(=O)ccc3c2)cc2c1C(=O)N(C(C)C1CC1)C2 (racemic) | 530 |  |  | 
10 | Cc1cc(-c2cnc3[nH]nnc3c2)cc2c1C(=O)N(C(C)C1CC1)C2 (racemic) | 1600 |  |  | 
11 | Cc1cc(-c2cnc3[nH]cc(-c4ccc(C#N)cc4)c3c2)cc2c1C(=O)N([C@@H](C)C1CC1)C2 | 42 | > 242 | > 242 | 3500
12 | Cc1cc(-c2cnc3[nH]cc(-c4ccncc4)c3c2)cc2c1C(=O)N(C1CCOCC1)C2 | 50 | 7 | 18 | 1000
13 | Cc1cc(-c2cnc3[nH]cc(-c4ccncc4)c3c2)cc2c1C(=O)N([C@H](C)C1CC1)C2 | 9 |  |  | 
14 | Cc1cc(-c2cnc3[nH]cc(-c4ccncc4)c3c2)cc2c1C(=O)N(C(C)(C)C)C2 | 26 | 62 | 107 | 720
15 | Cc1cc(-c2cnc3[nH]cc(-c4cccnc4)c3c2)cc2c1C(=O)N(C(C)C1CC1)C2 (racemic) | 7 | 89 | 112 | 400
16 | CC(C)c1cc(-c2cnc3[nH]cc(-c4cnn(C)c4)c3c2)cc2c1C(=O)N([C@@H](C)C1CC1)C2 | 4.2 | 898 | 1380 | 300

Row | Compound | IC50 [1] [nM] | Selectivity ratio (Homo sapiens [2]) | Selectivity ratio (Homo sapiens [3]) | IC50 [4] [nM]
17 | Cc1cc(-c2cnc3[nH]cc(-c4ccnc(C(F)(F)F)c4)c3c2)cc2c1C(=O)N([C@@H](C)C1CC1)C2 | 16 | > 578 | > 552 | 4000
18 | Cc1cc(-c2cnc3[nH]ncc3c2)cc2c1C(=O)N(C(C)C1CC1)C2 (racemic) | 90 |  |  | 
19 | Cc1cc(-c2cnc3[nH]cc(-c4ccn(C)c(=O)c4)c3c2)cc2c1C(=O)N([C@@H](C)C1CC1)C2 | 26 | 466 | 128 | 200
20 | Cc1cc(-c2cnc3[nH]ncc3n2)cc2c1C(=O)N([C@@H](C)C1CC1)C2 | 80 |  |  | 
21 | Cc1cc(-c2cnc3cn[nH]c3c2)cc2c1C(=O)N(C(C)C1CC1)C2 (racemic) | 490 |  |  | 
22 | Cc1ccc(-c2c[nH]c3ncc(-c4cc(C)c5c(c4)CN([C@@H](C)C4CC4)C5=O)cc23)cc1C(=O)O | 5 | > 1560 | > 1900 | 260
23 | Cc1cc(-c2cnc3[nH]nc(-c4ccncc4)c3c2)cc2c1C(=O)N([C@@H](C)C1CC1)C2 | 8 |  |  | 
24 | Cc1cc(-c2cnc3[nH]cc(C(=O)O)c3c2)cc2c1C(=O)N([C@@H](C)C1CC1)C2 | 13 | > 775 | > 775 | 11000
25 | CNC(=O)c1cc(-c2cnc3[nH]cc(-c4cnn(C)c4)c3c2)cc2c1C(=O)N([C@@H](C)C1CC1)C2 | 7.9 | 1050 | > 1180 | 730
26 | COC[C@H](C)N1Cc2cc(-c3cnc4[nH]cc(-c5ccncc5)c4c3)cc(C)c2C1=O | 9 | 51 | 216 | 600
27 | Cc1cc(-c2cnc3[nH]cc(-c4ccnc(N)c4)c3c2)cc2c1C(=O)N([C@@H](C)C1CC1)C2 | 5.8 | 214 | 640 | 400
28 | Cc1cc(-c2cnc3c(c2)CC(=O)N3)cc2c1C(=O)N(C(C)C1CC1)C2 (racemic) | 600 |  |  | 
29 | Cc1cc(-c2cnc3[nH]cc(-c4ccccc4C(=O)O)c3c2)cc2c1C(=O)N([C@@H](C)C1CC1)C2 | 180 | > 59 | > 59 | 15000
30 | COc1cc(-c2cnc3[nH]cc(-c4cnn(C)c4)c3c2)cc2c1C(=O)N([C@@H](C)C1CC1)C2 | 4.3 | > 1670 | 365 | 170
31 | Cc1cc(-c2cnc3[nH]ncc3c2)cc2c1C(=O)N([C@@H](C)C1CC1)C2 | 35 |  |  | 
32 | Cc1cc(-c2cnc3[nH]ccc3c2)cc2c1C(=O)N([C@@H](C)C1CC1)C2 | 50 |  |  | 

Compounds with a lower IC50 [1], results first:

Row | IC50 [1] [nM] | Selectivity ratio (Homo sapiens [2]) | Selectivity ratio (Homo sapiens [3]) | IC50 [4] [nM] | Compound
33 | 4 | 853 | 49 | 170 | Cc1cc(-c2cnc3[nH]cc(-c4ccc(C(=O)O)c(N5CCCC5)c4)c3c2)cc2c1C(=O)N([C@@H](C)C1CC1)C2
34 | 4 | 449 | 615 | 150 | C[C@@H](C1CC1)N1Cc2cc(-c3cnc4[nH]cc(-c5cnn(C)c5)c4c3)cc(NS(C)(=O)=O)c2C1=O
35 | 3.7 | 1060 | 244 | 170 | C[C@@H](C1CC1)N1Cc2cc(-c3cnc4[nH]cc(-c5cnn(C)c5)c4c3)cc(C#N)c2C1=O
36 | 3.3 | 416 | 183 | 600 | Cc1cc(-c2cnc3[nH]cc(-c4ccc(C(C)(C)O)nc4)c3c2)cc2c1C(=O)N([C@@H](C)C1CC1)C2
37 | 3.26 | 898 | 379 | 200 | Cc1cc(-c2cnc3[nH]cc(-c4cnn(C)c4)c3c2)cc2c1C(=O)N([C@@H](C)C1CC1)C2
38 | 3.1 | 546 | 1050 | 700 | Cc1cc(-c2cnc3[nH]cc(-c4ccc(C(=O)O)c(F)c4)c3c2)cc2c1C(=O)N([C@@H](C)C1CC1)C2
39 | 2.7 | 321 | 772 | 110 | Cc1cc(-c2cnc3[nH]cc(-c4cccc(C(=O)O)c4)c3c2)cc2c1C(=O)N([C@@H](C)C1CC1)C2
40 | 2.6 | 254 | 159 | 100 | C[C@@H](C1CC1)N1Cc2cc(-c3cnc4[nH]cc(-c5cnn(C)c5)c4c3)cc(S(=O)(=O)N(C)C)c2C1=O
41 | 2.59 | 711 | 226 | 230 | Cc1cc(-c2cnc3[nH]cc(-c4ccc(C(N)=O)cc4)c3c2)cc2c1C(=O)N([C@@H](C)C1CC1)C2
42 | 2.5 | > 1060 | > 2740 | 500 | CC(=O)Nc1cc(-c2cnc3[nH]cc(-c4cnn(C)c4)c3c2)cc2c1C(=O)N([C@@H](C)C1CC1)C2
43 | 2.4 | 455 | 533 | 170 | C[C@@H](C1CC1)N1Cc2cc(-c3cnc4[nH]cc(-c5cnn(C)c5)c4c3)cc(Cl)c2C1=O
44 | 2.4 | 2800 | 266 | 90 | C[C@@H](C1CC1)N1Cc2cc(-c3cnc4[nH]cc(-c5cnn(C)c5)c4c3)cc(C(F)(F)F)c2C1=O
45 | 2.1 | 224 | 344 | 59 | Cc1cc(-c2cnc3[nH]cc(-c4ccc(C(=O)O)c(C(C)C)c4)c3c2)cc2c1C(=O)N([C@@H](C)C1CC1)C2
46 | 1.64 | 380 | 591 | 350 | Cc1cc(-c2cnc3[nH]cc(-c4ccc(C(=O)O)c(C(F)(F)F)c4)c3c2)cc2c1C(=O)N([C@@H](C)C1CC1)C2
47 | 1.6 | 585 | 494 | 40 | Cc1cc(-c2cnc3[nH]cc(-c4ccc(C(=O)O)c(C5CC5)c4)c3c2)cc2c1C(=O)N([C@@H](C)C1CC1)C2
48 | 1.5 | 1020 | 289 | 50 | C[C@@H](C1CC1)N1Cc2cc(-c3cnc4[nH]cc(-c5cnn(C)c5)c4c3)cc(S(C)(=O)=O)c2C1=O
49 | 1.5 | 369 | 494 | 170 | COc1cc(-c2c[nH]c3ncc(-c4cc(C)c5c(c4)CN([C@@H](C)C4CC4)C5=O)cc23)ccc1C(=O)O
50 | 1.2 | 691 | 367 | 70 | Cc1cc(-c2cnc3[nH]cc(-c4cc(C)c(C(=O)O)c(C5CC5)c4)c3c2)cc2c1C(=O)N([C@@H](C)C1CC1)C2
